According to US9840483B2, “Radiomitigating pharmaceutical formulations” (The Regents of the University of California, priority 2013, dated 2017):
Values after ≈ are worked out from the molar mass of the structure shown.

How the values were obtained:
[1] = system: Til-1 murine lymphocyte cells; assay: Mitigation of radiation-induced apoptosis in vitro: viability of irradiated Til-1 cells (ATPlite) screen; type: cell-based; conditions: Mus musculus, light or radiation study, added 1 hour after 2 Gy, viability 24 h after radiation, relative to control irradiated value (100%), read-out: In Vitro (Mitigation cell viability %)
Experimental: The ability of compounds from Example 1 to mitigate radiation-induced apoptosis in vitro relative to control values (100%) is shown in FIG. 1. Briefly, 100,000 small-molecules were screened at 10 μM final concentration in 1% dimethylsulfoxide (DMSO) using the viability of a murine lymphocyte line as a readout (Mitigation cell viability %). Ten thousand Til-1 murine lymphocyte cells were dispensed into each well of 384-well plates using a Multidrop 384 (Thermo Scientific, Waltham, Mass.) The Til-1 cells were irradiated at the dose of 2 Gy. After 1 hour, the small-molecules were added. Twenty-four hours after the radiation, cell viability was assayed by luminesce-based measurement of ATP production (ATPlite, Perkin-Elmer, Waltham, Mass.) with a SpectraMax M5 microplate reader (Molecular Devices, Sunnyvale, Calif.). The Z′ factor for the assay was >0.5. See Zhang, J. H., Chung, T. D., Oldenburg, K. R. “A Simple Statistical Parameter for Use in Evaluation and Validation of High Throughput Screening Assays,” J Biomol Screen 4:67, 1999. A positive readout was >130% of the control irradiated value.

[2] = Solubility; type: physicochemical
[3] = system: Lewis lung (LLC) tumor lung colonies; assay: Lewis lung (LLC) model of artificial metastasis; type: in vivo, mice
Experimental: The Lewis lung (LLC) model of artificial metastasis was used to test the effects of the drug on the growth of tumor lung colonies in vivo and on radiation response. This was chosen because it is easy to see any drug effects on growth promotion and radioprotection in multiple tumors simultaneously. Specifically, C57Bl/6 mice and C3H mice were injected intravenously with 5×10^4 tumor cells. Subcutaneous injections of compound 2 (5355512) were started on day 4 when the tumors were already established in the lung. A daily dose of 20 mg/kg for 5 days was used to bias the experiment in favor of any tumor growth promotion. Local thoracic irradiation (LTI) was started on day 5 with 4 Gy daily doses for 3 days. This is higher than conventional 2 Gy to compensate for the rapid growth of murine tumors, but is still well within the higher ranges used clinically in hypofractionated exposures. The colonies were counted on day 14. […] LTI alone decreased the number of colonies by 40%.

[4] = system: endogenous colony forming units in the spleens; assay: Endogenous colony forming units in spleens after WBI; type: in vivo, mice; conditions: for Average endogenous CFU per spleen / Total endogenous CFU in spleens: 10 days after WBI at 6.5 Gy, 7.0 Gy, and 7.5 Gy
Excerpt: For example, Compound 2 (5355512) increased the total endogenous CFU in spleens and average endogenous CFU per spleen, at 10 days after whole body irradiation (WBI) at varying doses (e.g. 6.5 Gy, 7.0 Gy, and 7.5 Gy). (See FIG. 13).

[5] = system: TNF-α mRNA; assay: Cytokine mRNA expression in LPS-stimulated bone marrow-derived macrophages (qPCR); type: cell-based, murine; conditions: added to bone marrow-derived macrophages 1 hr after LPS, RT-PCR
Experimental: Additionally, bone marrow-derived macrophages (BMDMs) were derived by 7 days culture of marrow cells in medium containing 10% FBS and CSF-1 conditioned medium. The serum concentration was reduced to 2% FBS 16 h before stimulation with LPS for 30 min, treatment with drug and incubation for another 3.5 h (4 h total with LPS). Total cellular RNA was isolated by trizol and cDNA synthesized using iScript from BioRad. Gene expression was measured by qPCR and analyzed using the standard curve method, normalized to L32.

[6] = system: C57Bl/6 mice; assay: Localized abdominal irradiation survival; type: in vivo; conditions: 16 and 18 Gy abdominally
[7] = system: induced peritoneal macrophages; assay: Activation status of induced peritoneal macrophages after subcutaneous treatment of control or WBI mice; type: in vivo; conditions: for TNF-α production of induced peritoneal cells in response to LPS after treatment in vivo: compound given subcutaneously, macrophages harvested day 4, incubated 24 h with LPS
Experimental: To determine if compound 2 (5355512), injected subcutaneously would affect the activation status of induced peritoneal macrophages, compound 2 (5355512) was given subcutaneously to control or WBI (5 Gy) and peritoneal macrophages harvested at day 4 as before. Cells from these groups of mice were incubated for 24 h with LPS or LPS then 512 (See FIG. 12). […] However, this “priming” effect was less when WBI and Compound 2 (5355512) were combined in vivo.

[8] = system: TNF-α production; assay: TNF-α production by LPS-stimulated peritoneal macrophages (ELISA); type: cell-based, murine; conditions: for TNF-α production: added to stimulated peritoneal macrophages 1 hr after LPS, supernatants at 24 hrs, ELISA
Experimental: NPSPs were tested for their anti-inflammatory ability using murine macrophages. […] Briefly, peritoneal macrophages (PMs) were induced by intraperitoneal, injection of 150 μg MIS416 (Innate Immunotherapeutics, NZ) and harvested on day 4 by peritoneal wash out with PBS. Culture supernatants were harvested at 24 hrs and cytokines tested by ELISA (BD Biosciences, SD).

[9] = system: myeloid suppressor cells; assay: In vivo anti-inflammatory activity, generation of myeloid suppressor cells; conditions: data not shown
[10] = system: C3H mice and C57 mice; assay: Local thoracic irradiation, radiation pneumonitis and fibrosis; type: in vivo; conditions: local thoracic irradiation 14 and 18 Gy
[11] = system: C3Hf/Kam and C57B16/J mice; assay: Animal Whole Body Irradiation (WBI) assay, mitigation of lethality; type: in vivo; conditions: for Mitigation of WBI lethality at 5 mg/kg: 5 mg/kg injected subcutaneously; for Most effective dose in dose response: C3H male mice, compared with 1, 2, 10, 40, or 75 mg/kg; for Mitigation of WBI lethality in C57Bl/6 female mice: LD70/30 dose 8.509 Gy; for Survivors at day 30: lowest dosage 5 mg/kg subcutaneously, superior to 40 and 75 mg/kg; for Mitigation of WBI lethality, oral gavage 5 mg/kg / Mitigation of WBI lethality, oral gavage 25 mg/kg: orally by gavage, 5 daily doses starting 24 hours post-WBI, C3H and C57Bl/6 strains; for Effect of increasing the single dose: single dose increased to 25 mg/kg, 24 hours after WBI; for Mitigation of WBI lethality, single dose: single dose of 5 mg/kg given 24 hours after WBI
Experimental: Briefly, Animal Whole Body Irradiation (WBI) Assays were conducted with C3Hf/Kam and C57B16/J mice. The mice were bred and maintained in a strict gnotobiotic environment in the American Association of Laboratory Animal Care-Accredited Animal Facilities of Department of Radiation Oncology, UCLA. The Animal Care and Use Committee approved all experiments, which were performed in accordance with all local and national guidelines for the care and use of animals. Mice, 9-12 weeks old, were given WBI using a Gamma cell 40 irradiator (Cs137 source; Atomic Energy of Canada, Ltd.) at a dose rate of […]. Mice were monitored for at least 30 days and defined criteria for humane euthanasia was used as an endpoint.
Compounds were typically dissolved in 15 μL DMSO and suspended in 1 mL of 1% Cremphor EL in water for administration in 0.2 mL volumes. […] All mice, including controls, received the same diluent as the experimental groups. The chosen compounds were administered to the mice 5 times at 24 h intervals, starting 24 hours after WBI at LD70/30 (7.725 Gy for the C3H strain) doses. Similar data were obtained with a single dose and at 48 hours after radiation exposure in both mouse strains. Both subcutaneous and oral routes were effective. The compounds provided greatly elevated animals survival level as compared to control group.
Dose response experiments were executed in a manner similar to the WBI Assay described in Example 3. […] Both Compound 2 (53555.12) and Compound 3 (5346360) were effective in C57Bl/6 female mice in this case mitigating against LD70/30 doses of 8.509 Gy due to the relative radioresistance of this strain relative to C3Hs. […] When given orally by gavage, Compound 2 (535551.2) in 5 daily doses starting at 24 hours post-WBI was effective at 5 mg/kg in both C3H and C57Bl/6 strains, but not at 25 mg/kg.
Probit analyses of the effect of varying the radiation dose with Compound 2 (5355512) (5 mg/kg), and Compound 3 (5346360) (5 mg/kg), or 5 (5116319) (75 mg/kg) given subcutaneously for 5 days starting 24 hours after WBI, is shown in FIG. 6, with 95% confidence limits shown for LD50 values. The dose-response curves are steep with the dose modifying factors varying with the level of effect and drug, but were in the range 1.04-1.09. Such factors have to be considered against the level of the control and the reason for lethality. In this case, hematological insufficiency and not infection is the cause of death and as a result the radioresistance of the C3H strain is relatively high.
Compounds P1, P2, and P3, analogs of Compound 2 (5355512), were synthesized according to standard protocols. […] The analogs were injected subcutaneously 5 times over 5 clays at 5 mg/kg. Compound P2 elicited 100% survival after 30 days.

[12] = Breakdown products identified in vivo by mass spectrometry; conditions: analog of Compound 2
[13] = injected subcutaneously 5 times over 5 days at 5 mg/kg

O=[N+]([O-])c1ccc(S(=O)(=O)N2CCN(c3ccc(F)cc3)CC2)cc1 [Compound 1, 1-(4-fluorophenyl)-4-[(4-nitrobenzene)sulfonyl]piperazine]
viability at 10 µM [1]: 188%
solubility [2]: 26.6 µM (≈ 9.72 µg/mL)

O=[N+]([O-])c1ccc(S(=O)(=O)N2CCN(c3ccccc3)CC2)cc1 [Compound 2, 1-[(4-nitrobenzene)sulfonyl]-4-phenylpiperazine]
Number of colonies with LTI plus drug versus LTI alone ([3]; 20 mg/kg daily for 5 days plus local thoracic irradiation 4 Gy daily for 3 days from day 5): not further decreased
Decrease in number of lung tumor colonies ([3]; 20 mg/kg subcutaneously daily for 5 days from day 4, colonies counted day 14, P<0.05): 20%
Size of lung tumor colonies ([3]; 20 mg/kg subcutaneously daily for 5 days from day 4, day 14): smaller in size
Average endogenous CFU per spleen [4]: increased
Total endogenous CFU in spleens [4]: increased
Average endogenous CFU per spleen ([4]; listed as compound 2): increases
Total endogenous CFU in spleens ([4]; listed as compound 2): increases
Number of endogenous colony forming units in the spleens ([4]; mice that had received LD70/30 radiation doses): increased
Expression of TNF-α mRNA and other cytokines [5]: inhibit expression of TNF-α mRNA, and other cytokines
Mitigation of abdominal radiation [6]: mitigation of abdominal radiation
viability at 10 µM [1]: 182%
Priming effect when WBI and compound combined in vivo ([7]; WBI (5 Gy) plus compound subcutaneously): less
TNF-α production of induced peritoneal cells in response to LPS after treatment in vivo [7]: “primed” induced peritoneal cells to produce TNF-α
TNF-α production of induced peritoneal cells in response to LPS after treatment in vivo ([7]; listed as compound 2): induces peritoneal macrophages to produce TNF-α
TNF-α production after addition of compound in vitro ([7]; harvested cells incubated with LPS then compound): blunted TNF-α production
solubility [2]: 66.1 µM (≈ 23 µg/mL)
TNF-α production [8]: inhibit TNF-α production
Anti-inflammatory activity: LPS-induced production of tumor necrosis factor and other inflammatory cytokines ([8]; murine macrophages): showed anti-inflammatory activity
Anti-inflammatory activity in vivo [9]: showed anti-inflammatory activity
Survival post thoracic radiation [10]: supported survival of C3H mice and C57 mice to 100 days
Mitigation of WBI lethality at 5 mg/kg [11]: effective
Most effective dose in dose response [11]: 5 mg/kg
Mitigation of WBI lethality in C57Bl/6 female mice [11]: effective
Survivors at day 30 [11]: 100%
Mitigation of WBI lethality, oral gavage 5 mg/kg [11]: effective
Mitigation of WBI lethality, oral gavage 25 mg/kg [11]: not
Mitigation of WBI lethality, single dose at 48 hours ([11]; single dose given 48 hours after WBI): Some activity was retained
Mitigation of WBI lethality, single dose at 72 hours ([11]; single dose given 72 hours after WBI): not
Effect of increasing the single dose [11]: did not improve efficacy
Mitigation of WBI lethality, single dose [11]: effective

O=[N+]([O-])c1ccc(S(=O)(=O)N2CCN(c3cccc(Cl)c3)CC2)cc1 [Compound 3]
Expression of TNF-α mRNA and other cytokines [5]: inhibit expression of TNF-α mRNA, and other cytokines
viability at 10 µM [1]: 174%
solubility [2]: 6.5 µM (≈ 2.48 µg/mL)
TNF-α production [8]: inhibit TNF-α production
Mitigation of WBI lethality at 5 mg/kg [11]: effective
Most effective dose in dose response [11]: 5 mg/kg
Mitigation of WBI lethality in C57Bl/6 female mice [11]: effective
Survivors at day 30 [11]: 100%
Mitigation of WBI lethality, oral gavage 5 mg/kg [11]: inactive
Mitigation of WBI lethality, oral gavage 25 mg/kg [11]: inactive
Effect of increasing the single dose [11]: did not improve efficacy
Mitigation of WBI lethality, single dose [11]: effective

O=[N+]([O-])c1ccc(S(=O)(=O)N2CCN(C/C=C/c3ccccc3)CC2)cc1 [Compound 4, 1-[(4-nitrobenzene) Sulfonyl]-4-[(2E)-3-phenylprop-2-en-1-yl]piperazine]
viability at 10 µM [1]: 163%
solubility [2]: 20.4 µM (≈ 7.9 µg/mL)

CCN(CC)S(=O)(=O)c1ccc([N+](=O)[O-])cc1 [Compound 5, N,N-diethyl-4-nitrophenyl-1-sulfonamide]
viability at 10 µM [1]: 161%
solubility [2]: 513 µM (≈ 132 µg/mL)
TNF-α production [8]: able to inhibit TNF-α production

O=[N+]([O-])c1ccc(S(=O)(=O)N2CCNCC2)cc1 [Compound P1]
Breakdown product identification [12]: natural breakdown product identified in vivo
Solubility in water [2]: soluble in water
Mitigation of WBI lethality by analogs [11, 13]: effective

NCCNS(=O)(=O)c1ccc([N+](=O)[O-])cc1 [Compound P2]
Solubility in water [2]: soluble in water
Survival after 30 days [11, 13]: 100%

NCCCCCCCCNS(=O)(=O)c1ccc([N+](=O)[O-])cc1 [Compound P3]
Solubility in water [2]: soluble in water
